Assay results published in patent US10995225B2, “Macrocyclic polyphenols for universal coatings” (The Regents of the University of California, priority 2016, dated 2021).

Columns and labels:
[1] = Coating stability assay: coated substrates incubated overnight in PBS at 36° C.; format: physicochemical
Procedure: Coating Compositions and Stability Assays. A macrocyclic compound (1 mg/mL) was dissolved in DMSO. To this solution was added to 10 mM to 1.5 M salts in aqueous buffer (pH 4-10). Various substrates were coated by dipping the substrates in the coating mixture (e.g., see FIGS. 12-16) and the stability of the coating compositions were tested by incubating the coated substrates in PBS at 36° C. overnight (e.g., see FIG. 7-16). […] For example, 1 mg/mL of the arene were dissolved in DMSO (10 volume % of the total coating solution). To this solution the buffered aqueous solution containing the salt of choice and the buffer (90% of total coating solution) was added. Then the pH was adjusted using HCl or NaOH solutions. The solution was transferred to a glass vial and the different substrates where added. The vial was sealed and placed on a rocking platform for 24 h. The substrate was rinsed with DI H2O then dried with a N2 flow. Buffers used included Na2CO3 (pH 11), bicine (ph 8-9), bis-tris (pH 6-7), tris (pH 7), sodium acetate (pH 4-5). The Buffer concentration used were between 0.1 and 2.2 M. Salt concentration used were between 0 and 1.5 M.

[2] = Sessile Contact Angle / wettability of coated PDMS; format: physicochemical
Procedure: Sessile Contact Angle: 2 μL drops were placed on planar samples prepared as in the previous section. Contact angles were measured using Ramé-Hart Droplmage analysis software and hardware setup.

optimal pH for coating stability ([1]; 0.2M MgCl2 in Bicine buffer)	optimal salt concentration for coating stability ([1]; CaCl2 in Gly buffer)	optimal salt concentration for coating stability ([1]; MgCl2, pH 8.5, Bicine buffer)	optimal pH for coating stability ([1]; pH screen, MgCl2 salt)	wettability of PDMS [2]	Compound
8.5	0.5 M	0.5 M	8.0		Oc1ccc(C2c3cc(c(O)cc3O)C(c3ccc(O)c(O)c3)c3cc(c(O)cc3O)C(c3ccc(O)c(O)c3)c3cc(c(O)cc3O)C(c3ccc(O)c(O)c3)c3cc2c(O)cc3O)cc1O [D-D macrocycle]
				increase the wettability of PDMS	Oc1cccc(O)c1O [pyrogallol]
